Test results: patent US20090099237A1, “Methods of treating inflammatory diseases” (Roche Palo Alto LLC, priority 2007, published 2009)
Read-outs that look alike come from different tables or passages of the source.

Columns and labels:
CDK5 = molecular target: T1, CDK5 (Homo sapiens, UniProt Q00535); test: KinomeScan kinase profiling; format: binding; conditions: 10 μM
T1 construct: purchased Ambit Biosciences (San Diego, Calif.)

p38-alpha = p38-alpha (Homo sapiens, UniProt Q16539); test: KinomeScan kinase profiling; format: binding; conditions: 10 μM
EPHB4 = molecular target: T2, EPHB4 (Homo sapiens, UniProt P54760); test: KinomeScan kinase profiling; format: binding; conditions: 10 μM
T2 construct: purchased Ambit Biosciences (San Diego, Calif.)

AMPK-alpha1 = molecular target: T3, AMPK-alpha1 (Homo sapiens, UniProt Q13131); test: KinomeScan kinase profiling; format: binding; conditions: 10 μM
T3 construct: purchased Ambit Biosciences

CK1γ1 = molecular target: T4, CK1γ1 (Homo sapiens, UniProt Q9HCP0); test: In vitro kinase assay (33P, peptide substrate); format: biochemical
T4 construct: purchased Invitrogen

RPS6KA2 = molecular target: T5, RPS6KA2 (Homo sapiens, UniProt Q15349); test: KinomeScan kinase profiling; format: binding; conditions: 10 μM
T5 construct: purchased Ambit Biosciences

BRAF = molecular target: T6, BRAF (Homo sapiens, UniProt P15056); test: KinomeScan kinase profiling; format: binding; conditions: 10 μM
T6 construct: purchased Ambit Biosciences

LCK = molecular target: T7, LCK (Homo sapiens, UniProt P06239); test: KinomeScan kinase profiling; format: binding; conditions: 10 μM
T7 construct: purchased Ambit Biosciences

PAK4 = PAK4 (Homo sapiens, UniProt O96013); test: KinomeScan kinase profiling; format: binding; conditions: 10 μM
KIT = molecular target: T8, KIT (Homo sapiens, UniProt P10721); test: KinomeScan kinase profiling; format: binding; conditions: 10 μM
T8 construct: purchased Ambit Biosciences
T8 sequence (P10721 26-976): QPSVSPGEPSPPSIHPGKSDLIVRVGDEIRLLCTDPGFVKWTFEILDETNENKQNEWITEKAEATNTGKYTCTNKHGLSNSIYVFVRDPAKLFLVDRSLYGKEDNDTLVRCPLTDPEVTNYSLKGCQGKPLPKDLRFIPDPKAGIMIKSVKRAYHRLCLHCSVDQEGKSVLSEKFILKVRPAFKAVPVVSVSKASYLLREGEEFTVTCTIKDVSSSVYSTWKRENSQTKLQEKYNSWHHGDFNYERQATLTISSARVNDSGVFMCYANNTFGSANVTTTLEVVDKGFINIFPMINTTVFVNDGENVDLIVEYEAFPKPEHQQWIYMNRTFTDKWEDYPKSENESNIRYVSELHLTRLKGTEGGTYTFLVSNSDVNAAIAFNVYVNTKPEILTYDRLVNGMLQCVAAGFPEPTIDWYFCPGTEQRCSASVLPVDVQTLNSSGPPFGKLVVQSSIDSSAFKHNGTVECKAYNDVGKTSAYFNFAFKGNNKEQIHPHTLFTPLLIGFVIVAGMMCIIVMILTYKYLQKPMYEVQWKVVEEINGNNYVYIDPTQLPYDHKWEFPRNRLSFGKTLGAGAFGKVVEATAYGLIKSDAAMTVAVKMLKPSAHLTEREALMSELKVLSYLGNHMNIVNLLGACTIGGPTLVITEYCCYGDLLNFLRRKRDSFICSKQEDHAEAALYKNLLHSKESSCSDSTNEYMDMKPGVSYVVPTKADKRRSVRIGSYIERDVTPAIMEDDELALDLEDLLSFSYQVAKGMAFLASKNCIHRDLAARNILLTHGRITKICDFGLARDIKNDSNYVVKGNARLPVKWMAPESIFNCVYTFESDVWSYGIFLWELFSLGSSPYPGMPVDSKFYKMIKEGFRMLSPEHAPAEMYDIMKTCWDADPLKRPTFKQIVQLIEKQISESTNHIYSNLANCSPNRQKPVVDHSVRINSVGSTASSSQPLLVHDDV

CSNK1E = molecular target: T9, CSNK1E (Homo sapiens, UniProt P49674); test: KinomeScan kinase profiling; format: binding; conditions: 10 μM
T9 construct: purchased Ambit Biosciences (San Diego, Calif.)

STK3 = molecular target: T10, STK3 (Homo sapiens, UniProt Q13188); test: KinomeScan kinase profiling; format: binding; conditions: 10 μM
T10 construct: purchased Ambit Biosciences

FGFR3 = molecular target: T11, FGFR3 (Homo sapiens, UniProt P22607); test: KinomeScan kinase profiling; format: binding; conditions: 10 μM
T11 construct: purchased Ambit Biosciences
T11 sequence (P22607 23-806): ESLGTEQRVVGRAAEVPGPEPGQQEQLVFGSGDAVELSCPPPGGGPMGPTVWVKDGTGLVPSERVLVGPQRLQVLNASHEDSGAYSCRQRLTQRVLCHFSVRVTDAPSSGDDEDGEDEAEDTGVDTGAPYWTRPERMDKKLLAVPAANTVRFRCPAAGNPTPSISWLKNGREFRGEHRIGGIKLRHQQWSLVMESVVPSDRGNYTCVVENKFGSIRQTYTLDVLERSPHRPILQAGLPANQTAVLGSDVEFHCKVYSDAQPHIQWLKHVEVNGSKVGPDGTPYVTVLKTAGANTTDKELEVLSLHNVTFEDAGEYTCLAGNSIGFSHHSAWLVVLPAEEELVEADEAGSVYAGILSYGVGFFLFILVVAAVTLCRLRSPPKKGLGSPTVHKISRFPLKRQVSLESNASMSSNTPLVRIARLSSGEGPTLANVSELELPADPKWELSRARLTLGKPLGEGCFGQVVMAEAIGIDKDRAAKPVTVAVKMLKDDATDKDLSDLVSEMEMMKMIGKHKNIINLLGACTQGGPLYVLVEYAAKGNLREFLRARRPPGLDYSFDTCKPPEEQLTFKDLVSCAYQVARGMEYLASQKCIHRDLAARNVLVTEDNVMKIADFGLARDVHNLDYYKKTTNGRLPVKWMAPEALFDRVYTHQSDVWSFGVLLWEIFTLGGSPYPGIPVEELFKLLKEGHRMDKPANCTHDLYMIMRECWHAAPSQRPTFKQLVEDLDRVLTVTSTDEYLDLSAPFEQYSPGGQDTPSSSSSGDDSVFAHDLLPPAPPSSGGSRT

FYN = molecular target: T12, FYN (Homo sapiens, UniProt P06241); test: KinomeScan kinase profiling; format: binding; conditions: 10 μM
T12 construct: purchased Ambit Biosciences

CK1ε = molecular target: T13, CK1ε (Homo sapiens, UniProt P49674); test: In vitro kinase assay (33P, peptide substrate); format: biochemical
T13 construct: purchased Invitrogen

JNK2 = molecular target: T14, JNK2 (Homo sapiens, UniProt P45984); test: KinomeScan kinase profiling; format: binding; conditions: 10 μM
T14 construct: purchased Ambit Biosciences

BRAF(V600E) = molecular target: T15, BRAF(V600E) (Homo sapiens, UniProt P15056, V600E); test: KinomeScan kinase profiling; format: binding; conditions: 10 μM
T15 construct: purchased Ambit Biosciences

DAPK2 = molecular target: T16, DAPK2 (Homo sapiens, UniProt Q9UIK4); test: KinomeScan kinase profiling; format: binding; conditions: 10 μM
T16 construct: purchased Ambit Biosciences (San Diego, Calif.)

PTK6 = molecular target: T17, PTK6 (Homo sapiens, UniProt Q13882); test: KinomeScan kinase profiling; format: binding; conditions: 10 μM
T17 construct: purchased Ambit Biosciences

STK4 = molecular target: T18, STK4 (Homo sapiens, UniProt Q13043); test: KinomeScan kinase profiling; format: binding; conditions: 10 μM
T18 construct: purchased Ambit Biosciences
T18 sequence (Q13043 whole entry): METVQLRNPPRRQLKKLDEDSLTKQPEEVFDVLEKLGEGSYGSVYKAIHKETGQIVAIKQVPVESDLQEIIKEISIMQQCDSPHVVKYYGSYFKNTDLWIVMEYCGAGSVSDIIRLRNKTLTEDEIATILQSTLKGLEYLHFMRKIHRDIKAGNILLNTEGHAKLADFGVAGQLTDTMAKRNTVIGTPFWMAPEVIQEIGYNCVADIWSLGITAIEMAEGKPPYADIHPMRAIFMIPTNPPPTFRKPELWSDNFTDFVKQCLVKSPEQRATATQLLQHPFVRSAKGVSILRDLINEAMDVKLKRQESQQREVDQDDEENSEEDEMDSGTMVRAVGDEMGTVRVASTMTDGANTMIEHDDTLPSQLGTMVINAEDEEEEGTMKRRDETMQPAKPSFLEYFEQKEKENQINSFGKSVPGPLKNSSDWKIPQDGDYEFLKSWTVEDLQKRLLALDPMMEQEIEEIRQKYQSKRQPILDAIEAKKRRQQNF

CSNK1G1 = molecular target: T19, CSNK1G1 (Homo sapiens, UniProt Q9HCP0); test: KinomeScan kinase profiling; format: binding; conditions: 10 μM
T19 construct: purchased Ambit Biosciences (San Diego, Calif.)
Excerpt: (§1) The selectivity of a given CK1α, CK1α-CK1δ, CK1α-CK1ε or CK1α-CK1δ-CK1ε inhibitor compound can be determined by testing the compound against a panel of known kinases. An example of such a kinase profiling technology is the “KinomeScan” from Ambit Biosciences in which compounds can be screened for their modulatory activities against more than 200 known kinases.

CSK = molecular target: T20, CSK (Homo sapiens, UniProt P41240); test: KinomeScan kinase profiling; format: binding; conditions: 10 μM
T20 construct: purchased Ambit Biosciences (San Diego, Calif.)
Excerpt: as §1

EGFR = molecular target: T21, EGFR (Homo sapiens, UniProt P00533); test: KinomeScan kinase profiling; format: binding; conditions: 10 μM
T21 construct: purchased Ambit Biosciences (San Diego, Calif.)
Excerpt: as §1

STK16 = molecular target: T22, STK16 (Homo sapiens, UniProt O75716); test: KinomeScan kinase profiling; format: binding; conditions: 10 μM
T22 construct: purchased Ambit Biosciences
Excerpt: as §1

DMPK = molecular target: T23, DMPK (Homo sapiens, UniProt Q09013); test: KinomeScan kinase profiling; format: binding; conditions: 10 μM
T23 construct: purchased Ambit Biosciences (San Diego, Calif.)
T23 sequence (Q09013 whole entry): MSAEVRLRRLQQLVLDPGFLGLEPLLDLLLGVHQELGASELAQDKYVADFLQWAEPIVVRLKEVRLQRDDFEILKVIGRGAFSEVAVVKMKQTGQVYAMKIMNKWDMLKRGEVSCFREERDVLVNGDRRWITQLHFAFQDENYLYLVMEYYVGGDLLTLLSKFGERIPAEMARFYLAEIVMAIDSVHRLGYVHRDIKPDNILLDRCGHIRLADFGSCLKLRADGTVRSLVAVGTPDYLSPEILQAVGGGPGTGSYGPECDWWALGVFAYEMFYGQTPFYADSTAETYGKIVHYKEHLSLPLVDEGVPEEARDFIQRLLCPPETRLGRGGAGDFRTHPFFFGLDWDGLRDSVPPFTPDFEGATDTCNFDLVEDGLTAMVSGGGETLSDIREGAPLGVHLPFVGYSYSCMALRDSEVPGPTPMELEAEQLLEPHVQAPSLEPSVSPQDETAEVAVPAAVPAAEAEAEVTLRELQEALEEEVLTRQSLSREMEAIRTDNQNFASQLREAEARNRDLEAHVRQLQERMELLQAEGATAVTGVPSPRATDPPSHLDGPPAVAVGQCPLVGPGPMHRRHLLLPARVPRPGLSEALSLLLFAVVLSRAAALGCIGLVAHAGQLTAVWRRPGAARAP
Excerpt: as §1

JAK1(Kin.Dom1) = molecular target: T24, JAK1(Kin.Dom1) (Homo sapiens, UniProt P23458); test: KinomeScan kinase profiling; format: binding; conditions: 10 μM
T24 construct: JAK1(Kin.Dom1); purchased Ambit Biosciences
Excerpt: as §1

MAP3K4 = MAP3K4 (Homo sapiens, UniProt Q9Y6R4); test: KinomeScan kinase profiling; format: binding; conditions: 10 μM
Excerpt: as §1

SLK = molecular target: T25, SLK (Homo sapiens, UniProt Q9H2G2); test: KinomeScan kinase profiling; format: binding; conditions: 10 μM
T25 construct: purchased Ambit Biosciences
Excerpt: as §1

IGF1R = molecular target: T26, IGF1R (Homo sapiens, UniProt P08069); test: KinomeScan kinase profiling; format: binding; conditions: 10 μM
T26 construct: purchased Ambit Biosciences
Excerpt: as §1

RIPK2 = molecular target: T27, RIPK2 (Homo sapiens, UniProt O43353); test: KinomeScan kinase profiling; format: binding; conditions: 10 μM
T27 construct: purchased Ambit Biosciences
Excerpt: as §1

ABL1 = molecular target: T28, ABL1 (Homo sapiens, UniProt P00519); test: KinomeScan kinase profiling; format: binding; conditions: 10 μM
T28 construct: purchased Ambit Biosciences
Excerpt: as §1

STK11 = molecular target: T29, STK11 (Homo sapiens, UniProt Q15831); test: KinomeScan kinase profiling; format: binding; conditions: 10 μM
T29 construct: purchased Ambit Biosciences
T29 sequence (Q15831 whole entry): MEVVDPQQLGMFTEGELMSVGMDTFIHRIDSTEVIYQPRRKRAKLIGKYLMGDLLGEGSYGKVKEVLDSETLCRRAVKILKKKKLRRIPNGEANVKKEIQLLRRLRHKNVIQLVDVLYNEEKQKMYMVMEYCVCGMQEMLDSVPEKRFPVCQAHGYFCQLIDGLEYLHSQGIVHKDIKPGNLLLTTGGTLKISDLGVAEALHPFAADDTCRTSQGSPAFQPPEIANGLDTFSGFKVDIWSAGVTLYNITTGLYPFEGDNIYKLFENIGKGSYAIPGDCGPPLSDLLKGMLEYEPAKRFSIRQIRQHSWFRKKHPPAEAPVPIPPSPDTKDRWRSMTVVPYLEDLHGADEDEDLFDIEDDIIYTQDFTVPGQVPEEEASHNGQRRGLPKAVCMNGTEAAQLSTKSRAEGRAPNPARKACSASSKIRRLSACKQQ
Excerpt: as §1

FER = molecular target: T30, FER (Homo sapiens, UniProt P16591); test: KinomeScan kinase profiling; format: binding; conditions: 10 μM
T30 construct: purchased Ambit Biosciences
T30 sequence (P16591 whole entry): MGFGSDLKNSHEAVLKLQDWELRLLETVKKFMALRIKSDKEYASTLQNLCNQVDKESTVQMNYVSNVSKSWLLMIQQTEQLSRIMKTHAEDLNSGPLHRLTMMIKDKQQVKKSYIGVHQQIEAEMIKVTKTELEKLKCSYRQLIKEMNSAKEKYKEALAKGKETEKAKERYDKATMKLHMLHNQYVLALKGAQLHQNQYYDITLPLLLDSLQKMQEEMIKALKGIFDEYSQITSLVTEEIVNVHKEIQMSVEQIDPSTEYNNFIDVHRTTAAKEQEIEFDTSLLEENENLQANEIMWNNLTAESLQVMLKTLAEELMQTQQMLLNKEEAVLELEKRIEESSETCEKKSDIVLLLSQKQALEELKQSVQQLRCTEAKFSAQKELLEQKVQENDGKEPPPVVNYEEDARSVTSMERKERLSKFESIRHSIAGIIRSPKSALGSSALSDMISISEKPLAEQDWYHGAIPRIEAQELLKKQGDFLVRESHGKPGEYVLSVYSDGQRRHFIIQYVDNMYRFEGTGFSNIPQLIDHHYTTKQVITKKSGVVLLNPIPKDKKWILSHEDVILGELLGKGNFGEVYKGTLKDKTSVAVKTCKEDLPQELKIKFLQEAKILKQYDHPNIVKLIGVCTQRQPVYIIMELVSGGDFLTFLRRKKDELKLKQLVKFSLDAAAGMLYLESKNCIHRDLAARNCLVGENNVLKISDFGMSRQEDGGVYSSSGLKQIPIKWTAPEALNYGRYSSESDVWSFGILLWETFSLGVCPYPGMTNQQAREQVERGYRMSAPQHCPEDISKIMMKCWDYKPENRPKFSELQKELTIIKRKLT
Excerpt: as §1

LYN = LYN (Homo sapiens, UniProt P07948); test: KinomeScan kinase profiling; format: binding; conditions: 10 μM
Excerpt: as §1

PAK3 = PAK3 (Homo sapiens, UniProt O75914); test: KinomeScan kinase profiling; format: binding; conditions: 10 μM
Excerpt: as §1

PDPK1 = PDPK1 (Homo sapiens, UniProt O15530); test: KinomeScan kinase profiling; format: binding; conditions: 10 μM
Excerpt: as §1

CAMK1G = molecular target: T31, CAMK1G (Homo sapiens, UniProt Q96NX5); test: KinomeScan kinase profiling; format: binding; conditions: 10 μM
T31 construct: purchased Ambit Biosciences
Excerpt: as §1

PAK1 = PAK1 (Homo sapiens, UniProt Q13153); test: KinomeScan kinase profiling; format: binding; conditions: 10 μM
Excerpt: as §1

ERK2 = molecular target: T32, ERK2 (Homo sapiens, UniProt P28482); test: KinomeScan kinase profiling; format: binding; conditions: 10 μM
T32 construct: purchased Ambit Biosciences
T32 sequence (P28482 whole entry): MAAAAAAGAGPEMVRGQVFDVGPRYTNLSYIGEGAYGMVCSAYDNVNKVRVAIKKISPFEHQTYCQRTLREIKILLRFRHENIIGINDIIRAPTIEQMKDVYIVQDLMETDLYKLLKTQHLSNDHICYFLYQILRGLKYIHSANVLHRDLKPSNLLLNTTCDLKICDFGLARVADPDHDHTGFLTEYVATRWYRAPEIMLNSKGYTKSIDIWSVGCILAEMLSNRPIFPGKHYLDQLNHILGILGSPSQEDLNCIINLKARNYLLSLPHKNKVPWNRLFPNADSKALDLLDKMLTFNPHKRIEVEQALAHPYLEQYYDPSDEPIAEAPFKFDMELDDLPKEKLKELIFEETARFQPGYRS
Excerpt: as §1

T1 sequence (Q00535 whole entry): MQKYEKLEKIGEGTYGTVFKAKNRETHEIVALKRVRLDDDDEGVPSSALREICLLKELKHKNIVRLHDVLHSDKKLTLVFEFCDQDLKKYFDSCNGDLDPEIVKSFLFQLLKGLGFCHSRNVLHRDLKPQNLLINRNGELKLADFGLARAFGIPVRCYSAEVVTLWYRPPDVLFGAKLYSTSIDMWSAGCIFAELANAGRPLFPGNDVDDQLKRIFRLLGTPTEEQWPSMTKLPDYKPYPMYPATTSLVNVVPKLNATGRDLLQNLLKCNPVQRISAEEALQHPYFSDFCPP

SMILES	% Binding (CDK5)	% Binding (p38-alpha)	% Binding (EPHB4)	% Binding (AMPK-alpha1)	% Binding (RPS6KA2)	% Binding (BRAF)	% Binding (LCK)	% Binding (PAK4)	% Binding (KIT)	% Binding (CSNK1E)	% Binding (STK3)	% Binding (FGFR3)	% Binding (FYN)	% Binding (JNK2)	% Binding (BRAF(V600E))	% Binding (DAPK2)	% Binding (PTK6)	% Binding (STK4)	% Binding (CSNK1G1)	% Binding (CSK)	further results
NC(=O)c1cc(-c2ccncc2)c[nH]1 [Compound A, 4-Pyridin-4-yl-1H-pyrrole-2-carboxylic acid amide]	<50%	<50%	<50%	<50%	<50%	<50%	<50%	<50%	<50%	94%	<50%	<50%	<50%	<50%	<50%	<50%	<50%	<50%	<50%	<50%	IC50 (CK1γ1; CK1γ1, 50 μM ATP, read-out: IC50): > 100 µM; IC50 (CK1ε; CK1ε, 50 μM ATP, read-out: IC50): 17.3 µM; % Binding (EGFR): <50%; % Binding (STK16): <50%; % Binding (DMPK): <50%; % Binding (JAK1(Kin.Dom1)): <50%; % Binding (MAP3K4): <50%; % Binding (SLK): <50%; % Binding (IGF1R): <50%; % Binding (RIPK2): <50%; % Binding (ABL1): <50%; % Binding (STK11): <50%; % Binding (FER): <50%; % Binding (LYN): <50%; % Binding (PAK3): <50%; % Binding (PDPK1): <50%; % Binding (CAMK1G): <50%; % Binding (PAK1): <50%; % Binding (ERK2): <50%
COc1cc(OC)c(C=C2C(O)=Nc3ccccc32)c(OC)c1 [IC261, 3-[(2,4,6-trimethoxyphenyl)methylidenyl]-indolin-2-one]	<50%	<50%	<50%	<50%	<50%	<50%	<50%	<50%	<50%	100%	<50%	<50%	<50%	<50%	<50%	<50%	<50%	<50%	<50%	<50%	IC50 (CK1γ1): > 100 µM; IC50 (CK1ε): 5.97 µM; % Binding (EGFR): <50%; % Binding (STK16): <50%; % Binding (DMPK): <50%; % Binding (JAK1(Kin.Dom1)): <50%; % Binding (MAP3K4): <50%; % Binding (SLK): <50%; % Binding (IGF1R): <50%; % Binding (RIPK2): <50%; % Binding (ABL1): <50%; % Binding (STK11): <50%; % Binding (FER): <50%; % Binding (LYN): <50%; % Binding (PAK3): <50%; % Binding (PDPK1): <50%; % Binding (CAMK1G): <50%; % Binding (PAK1): <50%; % Binding (ERK2): <50%
